Test [1] deals with pCMV/HCT116 cells. The settings on record: pCMV/HCT116, IC50 dose, 24 h. On the procedure: (§1) Cell invasion and migration assays: The invasive capability of pCMV/HCT116 and Notch1/HCT116 was evaluated in Boyden chambers, as described in earlier studies. HCT 116, SW-620, pCMV/HCT116, and Notch1/HCT116 cells were analyzed for migration capability with protocols already described in an earlier study. All experiments were performed in triplicate to achieve statistical relevance.

The test system of test [2] is Notch1/HCT116 clone C4. To be noted: C4, IC50 dose, 24 h. As to the method:
as §1

The subject of test [3] is HCT116 cells. To be noted: HCT116, 24 h. As to the method: as §1
In test [4] the test system is Notch1/HCT116 clone C5. To be noted: C5, IC50 dose, 24 h. On the procedure: as §1
The subject of test [5] is SW620 cells. The settings on record: SW620, 24 h. As to the method:
as §1

Test [6] concerns NICD and HES1 in SW620 cells. The settings on record: SW620, IC50 concentration. As to the method: (§2) Protein extraction and western blotting: Mammalian Protein Extraction Reagent (Thermo Scientific, Rockford, Ill., USA) was used to extract total protein from pCMV/HCT116, C4, and C5 cells as well as bladder cancer cells were prepared with the according to the manufacturer's instructions. Western blotting was performed using specific antibodies against Notch1 (Cat: 3447S), Bcl-2 (Cat: 2872S), E-cadherin (Cat: 3195S), N-cadherin (Cat: 13116S), Snail (Cat: 3879S), β-catenin (Cat: 8480S), NF-κB (p65), Bax (Cat: 5023S), cleaved PARP (Cat: 9541L) (Cell Signaling Technology; Danvers, Mass., USA), and β-actin (Santa Cruz Biotechnologies, Dallas, Tex., USA), HES1 (Genescript; Lot QC1851, Piscataway, N.J., USA). Actin presented in the images represent the loading control for one or more markers from same cell lysates. Chemiluminescence was used to detect the positive bands on the membrane.

The test system of test [7] is NICD and HES1 in HCT116 cells. To be noted: HCT116, IC50 concentration. On the procedure:
as §2

For test [8], the system named is pCMV/HCT116 cells. The settings on record: pCMV/HCT116, IC50 concentration. On the procedure:
(§3) Flow cytometry analysis: 0.3×10^6 cells seeded in a 6 well plate and were cultured until 70-80% confluence was achieved. […] To quantify apoptosis, flow cytometry analysis of the Annexin V-FITC against Propidium Iodide (PI) assay was performed following a previously described protocol. The Apoptosis detection kit was purchased from BD Pharminogen™, San Diego, Calif., USA. All experiments were repeated in triplicate to achieve statistical relevance.

For test [9], the system named is Notch1/HCT116 clone C4. The settings on record: C4, IC50 concentration. On the procedure: as §3
Test [10] concerns SW-620 cells. To be noted: SW-620, 24 h. On the procedure:
as §3

Test [11] relates to HCT116 cells. To be noted: HCT116, 24 h. On the procedure:
as §3
The source holds these as a separate data set.

For test [12], the system named is Notch1/HCT116 clone C5. The settings on record: C5, IC50 concentration. On the procedure:
as §3

Regarding `CC1=C(CO)C(=O)O[C@@H]([C@@H](C)[C@H]2CC[C@H]3[C@@H]4C[C@H]5O[C@]56[C@@H](OC(=O)c5ccccn5)C=CC(=O)[C@]6(C)[C@H]4CC[C@]23C)C1` [ASR490, Pyridine-2-carboxylic acid {17-[1-(5-hydroxymethyl-4-methyl-6-oxo-3,6-dihydro-2H-pyran-2-yl)-ethyl]-10,13-dimethyl-1-oxo, 4,6,7,8,9,10,11,12,13,14,15,16,17-tetradecahydro-20-oxacyclopropa[5,6]cyclopenta[a]phenanthren-4-yl}ester], the entries for the “decline in invasive capacity” value in [1], in test [2] and in test [4] were 40%, 60.75% and 65.5%, respectively. Further, the “decline in migratory potential” value in test [1] amounted to 25.11%. Also, the entries for the “inhibition of migratory capability” value in [3] and in test [5] were 25.18% and 32.36%, respectively. In addition, the “expression of NICD and HES1 protein” value in test [6] and in test [7] was “Significant downregulation” in each case. Besides, the induction of apoptosis in test [8] worked out at 25.8%; in [9], 13.4%; in test [10], 9.57%; in [11], 19.9%; in test [12], 13.2%.

Values taken from patent publication US20230103142A1, “SMALL MOLECULE REGULATORS OF NOTCH1 AND USES THEREOF” (THE PENN STATE RESEARCH FOUNDATION, priority 2020, published 2023).
